The text below walks through data of ChEMBL document CHEMBL1146903, “Modification of the clozapine structure by parallel synthesis” (Bioorg Med Chem Lett, 2006).

One assay addresses D(1A) dopamine receptor (Homo sapiens, UniProt P21728). As to the kind of experiment: Displacement of [3H]SCH 23390 from dopamine D1 receptor expressed in CHO cells. Type of assay: cell-based. On the technique in general: Displacement assays read how much labelled ligand stays bound in the presence of the test substance.
In the next assay the target is D(2) dopamine receptor (Homo sapiens, UniProt P14416). Briefly: Displacement of [3H]methylspiperone from dopamine D2 receptor expressed in CHO cells. It counts as cell-based.
D(2) dopamine receptor, sequence (P14416 whole entry): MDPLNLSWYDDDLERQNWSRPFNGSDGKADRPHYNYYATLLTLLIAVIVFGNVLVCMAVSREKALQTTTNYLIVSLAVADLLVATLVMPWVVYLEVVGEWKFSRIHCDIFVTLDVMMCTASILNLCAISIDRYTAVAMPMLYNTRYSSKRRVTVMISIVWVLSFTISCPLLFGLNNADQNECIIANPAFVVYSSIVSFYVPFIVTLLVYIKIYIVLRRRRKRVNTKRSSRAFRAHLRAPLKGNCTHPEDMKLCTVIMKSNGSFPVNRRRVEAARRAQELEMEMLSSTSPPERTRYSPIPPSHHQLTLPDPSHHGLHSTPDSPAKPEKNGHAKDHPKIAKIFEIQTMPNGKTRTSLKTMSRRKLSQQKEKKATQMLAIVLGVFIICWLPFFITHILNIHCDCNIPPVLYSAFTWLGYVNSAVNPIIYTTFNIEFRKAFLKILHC

The structures appear in SMILES notation. A value given as a limit tells only on which side of the number the result lay.

D(1A) dopamine receptor, sequence (P21728 whole entry): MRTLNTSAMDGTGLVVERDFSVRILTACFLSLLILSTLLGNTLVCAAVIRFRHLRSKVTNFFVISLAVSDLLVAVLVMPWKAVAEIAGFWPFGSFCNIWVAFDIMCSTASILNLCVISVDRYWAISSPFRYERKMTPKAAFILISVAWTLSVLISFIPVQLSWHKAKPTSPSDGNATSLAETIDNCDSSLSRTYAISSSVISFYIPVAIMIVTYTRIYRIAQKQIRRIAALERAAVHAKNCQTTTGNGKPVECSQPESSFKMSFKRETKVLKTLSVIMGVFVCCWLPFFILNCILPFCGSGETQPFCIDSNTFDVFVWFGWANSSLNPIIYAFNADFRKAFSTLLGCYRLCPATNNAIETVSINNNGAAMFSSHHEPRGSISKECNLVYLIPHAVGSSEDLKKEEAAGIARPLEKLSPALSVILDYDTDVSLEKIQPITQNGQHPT

For `CC(C)N1CCN(C2=Nc3cc(Cl)ccc3N(NC(=O)c3ccccc3Cl)c3ccccc32)CC1`, the Ki (usually the dissociation constant of the complex between target and ligand, obtained from inhibition or displacement) on D(1A) dopamine receptor was 191 nM; at D(2) dopamine receptor, 998 nM.
For the compound `COc1cc(C(=O)NN2c3ccc(Cl)cc3N=C(N3CCN(C)CC3)c3ccccc32)cc(OC)c1OC`, the results for the Ki at D(1A) dopamine receptor and on D(2) dopamine receptor were 31 nM and 5560 nM, respectively.
Turning to `Cc1ccccc1C(=O)N1c2ccc(Cl)cc2N=C(N2CCN(C)CC2)c2ccccc21`, the inhibitory constant (Ki) was 1230 nM on D(1A) dopamine receptor and 4930 nM at D(2) dopamine receptor.
For the compound `Cc1ccc(S(=O)(=O)N2c3ccc(Cl)cc3N=C(N3CCN(C)CC3)c3ccccc32)cc1`, the Ki at D(1A) dopamine receptor was found to be 65 nM; on D(2) dopamine receptor, 338 nM.
As for `Fc1ccc(CN2CCN(C3=Nc4cc(Cl)ccc4Nc4ccccc43)CC2)c(F)c1`, the Ki on D(1A) dopamine receptor stood at 835 nM; on D(2) dopamine receptor, 177 nM.
As for `CN1CCN(C2=Nc3cc(Cl)ccc3N(NC(=O)c3ccc4c(c3)OCO4)c3ccccc32)CC1`, the inhibition constant (Ki) on D(1A) dopamine receptor stood at 56 nM; on D(2) dopamine receptor, 828 nM.
The corresponding values for `O=C(NN1c2ccc(Cl)cc2N=C(N2CCN(CC3CCCCC3)CC2)c2ccccc21)c1ccccc1Cl` are 294 nM and over 3000 nM.
With `CN1CCN(C2=Nc3ccccc3N(NC(=O)c3cccc(C#N)c3)c3ccc(Cl)cc32)CC1`, the Ki at D(1A) dopamine receptor was 99 nM; on D(2) dopamine receptor, 1190 nM.
For `CN1CCN(C2=Nc3cc(Cl)ccc3N(NC(=O)c3ccccc3I)c3ccc(Cl)cc32)CC1`, the Ki turned out to be 12 nM on D(1A) dopamine receptor and 36 nM on D(2) dopamine receptor.
Regarding `FC(F)(F)Oc1cccc(CN2CCN(C3=Nc4cc(Cl)ccc4Nc4ccccc43)CC2)c1`, the Ki at D(1A) dopamine receptor stood at 3800 nM; at D(2) dopamine receptor, 3.4 nM.
The corresponding values for `O=C(NN1c2ccc(Cl)cc2N=C(N2CCN(Cc3ccc(F)cc3F)CC2)c2ccccc21)c1ccccc1Cl` are 886 nM and over 3000 nM.
`Cc1ccccc1C(=O)NN1c2ccc(Cl)cc2N=C(N2CCN(C)CC2)c2cc(Cl)ccc21`: the values for the Ki at D(1A) dopamine receptor and on D(2) dopamine receptor were 2 nM and 175 nM, respectively.
The corresponding values for `CCN1CCN(C2=Nc3cc(Cl)ccc3N(NC(=O)c3ccccc3Cl)c3ccccc32)CC1` are 54 nM and 709 nM.
Regarding `CN1CCN(C2=Nc3cc(Cl)ccc3N(NC(=O)c3cc(F)c(F)c(F)c3F)c3ccc(Cl)cc32)CC1`, the Ki at D(1A) dopamine receptor turned out to be 98 nM; on D(2) dopamine receptor it was 270 nM.
In the case of `O=C(NN1c2ccc(Cl)cc2N=C(N2CCN(Cc3cccc4c3OC(F)(F)O4)CC2)c2ccccc21)c1ccccc1Cl`, the Ki was 4750 nM on D(1A) dopamine receptor and over 3000 nM at D(2) dopamine receptor.
The corresponding values for `CN1CCN(C2=Nc3cc(Cl)ccc3N(NC(=O)c3cccc(C#N)c3)c3ccc(Cl)cc32)CC1` are 47 nM and 175 nM.
The corresponding values for `COc1cccc(OC)c1C(=O)NN1c2ccccc2N=C(N2CCN(C)CC2)c2cc(Cl)ccc21` are 6 nM and 197 nM.
In the case of `O=C(NN1c2ccc(Cl)cc2N=C(N2CCN(Cc3ccc4c(c3)OCCO4)CC2)c2ccccc21)c1ccccc1Cl`, the Ki on D(1A) dopamine receptor was 238 nM; at D(2) dopamine receptor, over 2000 nM.
Regarding `CN1CCN(C2=Nc3cc(Cl)ccc3N(C(=O)Nc3cc(Cl)cc(Cl)c3)c3ccccc32)CC1`, the Ki on D(1A) dopamine receptor was determined as 175 nM; on D(2) dopamine receptor, 3900 nM.
The corresponding values for `FC1(F)Oc2cccc(CN3CCN(C4=Nc5cc(Cl)ccc5Nc5ccccc54)CC3)c2O1` are 3110 nM and 8 nM.
Turning to `COc1ccccc1CNN1c2ccc(Cl)cc2N=C(N2CCN(C)CC2)c2ccccc21`, the values for the inhibitory constant (Ki) on D(1A) dopamine receptor and on D(2) dopamine receptor were 60 nM and 202 nM, respectively.
The corresponding values for `O=C(NN1c2ccc(Cl)cc2N=C(N2CCN(Cc3cccc4c3OCO4)CC2)c2ccccc21)c1ccccc1Cl` are 571 nM and over 2000 nM.
Regarding `CN1CCN(C2=Nc3cc(Cl)ccc3N(NC(=O)c3ccc(C#N)cc3)c3ccc(Cl)cc32)CC1`, the Ki on D(1A) dopamine receptor came out at 51 nM; on D(2) dopamine receptor it was 194 nM.
As for `CC(C)CN1CCN(C2=Nc3cc(Cl)ccc3N(NC(=O)c3ccccc3Cl)c3ccccc32)CC1`, the Ki on D(1A) dopamine receptor was 81 nM; on D(2) dopamine receptor, over 3000 nM.
`CN1CCN(C2=Nc3ccccc3N(NC(=O)c3cc(F)ccc3C(F)(F)F)c3ccc(Cl)cc32)CC1`: the Ki on D(1A) dopamine receptor stood at 22 nM; on D(2) dopamine receptor, 421 nM.
The corresponding values for `COc1cc(C(=O)NN2c3ccccc3N=C(N3CCN(C)CC3)c3cc(Cl)ccc32)cc(OC)c1OC` are 20 nM and 3230 nM.
Consider `COc1cc(C(=O)NN2c3ccc(Cl)cc3N=C(N3CCN(C)CC3)c3cc(Cl)ccc32)cc(OC)c1OC`, for which the results for the inhibition constant (Ki) on D(1A) dopamine receptor and at D(2) dopamine receptor were 16 nM and 267 nM, respectively.
The corresponding values for `CN1CCN(C2=Nc3cc(Cl)ccc3N(NC(=O)c3ccncc3)c3ccccc32)CC1` are 86 nM and 28400 nM.
Consider `CN1CCN(C2=Nc3ccccc3N(NC(=O)c3ccc(C#N)cc3)c3ccc(Cl)cc32)CC1`, for which the Ki at D(1A) dopamine receptor was 64 nM; on D(2) dopamine receptor, 1970 nM.
The corresponding values for `Cc1ccccc1S(=O)(=O)N1c2ccc(Cl)cc2N=C(N2CCN(C)CC2)c2ccccc21` are 71 nM and 63 nM.
The corresponding values for `O=C(NN1c2ccc(Cl)cc2N=C(N2CCN(Cc3ccccc3F)CC2)c2ccccc21)c1ccccc1Cl` are 503 nM and over 2000 nM.
In the case of `Cc1ccc(CN2CCN(C3=Nc4cc(Cl)ccc4N(NC(=O)c4ccccc4Cl)c4ccccc43)CC2)c(C)c1`, the Ki at D(1A) dopamine receptor is 1100 nM; at D(2) dopamine receptor it was over 3000 nM.
The corresponding values for `Clc1ccc2c(c1)N=C(N1CCN(Cc3ccc4c(c3)OCCO4)CC1)c1ccccc1N2` are 583 nM and 29 nM.
The corresponding values for `CCCN1CCN(C2=Nc3cc(Cl)ccc3N(NC(=O)c3ccccc3Cl)c3ccccc32)CC1` are 26 nM and 409 nM.
In turn, `COc1ccc(C(=O)NN2c3ccc(Cl)cc3N=C(N3CCN(C)CC3)c3ccccc32)cc1` displayed a Ki on D(2) dopamine receptor of over 3000 nM.
Consider `CN1CCN(C2=Nc3cc(Cl)ccc3N(NC(=O)c3cccc(F)c3F)c3ccccc32)CC1`, for which the affinity on D(1A) dopamine receptor, expressed as Ki, was 16 nM.
`Cc1ccc(CN2CCN(C3=Nc4cc(Cl)ccc4Nc4ccccc43)CC2)c(C)c1`: the Ki at D(1A) dopamine receptor was found to be 482 nM; at D(2) dopamine receptor, 65 nM.
On to `COc1cccc(OC)c1C(=O)NN1c2ccc(Cl)cc2N=C(N2CCN(C)CC2)c2cc(Cl)ccc21`, for which the Ki at D(1A) dopamine receptor was 11 nM; on D(2) dopamine receptor it was 97 nM.
Regarding `CCC(CC)CN1CCN(C2=Nc3cc(Cl)ccc3N(NC(=O)c3ccccc3Cl)c3ccccc32)CC1`, the values for the Ki on D(1A) dopamine receptor and on D(2) dopamine receptor were 505 nM and over 3000 nM, respectively.
For the compound `CN1CCN(C2=Nc3cc(Cl)ccc3N(NC(=O)c3cccnc3)c3ccccc32)CC1`, the Ki on D(1A) dopamine receptor came to 85 nM; on D(2) dopamine receptor, 12700 nM.
The corresponding values for `Clc1ccc2c(c1)N=C(N1CCN(Cc3cccc4c3OCO4)CC1)c1ccccc1N2` are 637 nM and 80 nM.
In the case of `CN1CCN(C2=Nc3ccccc3N(NC(=O)c3ccc4c(c3)OCO4)c3ccc(Cl)cc32)CC1`, the Ki at D(1A) dopamine receptor turned out to be 83 nM; on D(2) dopamine receptor it was 1260 nM.
At D(1A) dopamine receptor, `CN1CCN(C2=Nc3cc(Cl)ccc3N(NC(=O)c3ccccc3Cl)c3ccccc32)CC1` returned a Ki of 4.1 nM.
For the compound `CC(C)(C)CN1CCN(C2=Nc3cc(Cl)ccc3N(NC(=O)c3ccccc3Cl)c3ccccc32)CC1`, the Ki on D(1A) dopamine receptor is 447 nM; on D(2) dopamine receptor, over 3000 nM.
The corresponding values for `COc1cccc(C(=O)NN2c3ccc(Cl)cc3N=C(N3CCN(C)CC3)c3cc(Cl)ccc32)c1` are 44 nM and 139 nM.
`O=C(NN1c2ccc(Cl)cc2N=C(N2CCN(Cc3cccc(OC(F)(F)F)c3)CC2)c2ccccc21)c1ccccc1Cl`: the Ki is 2570 nM on D(1A) dopamine receptor and over 3000 nM on D(2) dopamine receptor.
Regarding `CN1CCN(C2=Nc3ccccc3N(NC(=O)c3cc(F)c(F)c(F)c3F)c3ccc(Cl)cc32)CC1`, the results for the Ki on D(1A) dopamine receptor and on D(2) dopamine receptor were 156 nM and 759 nM, respectively.
The corresponding values for `CN1CCN(C2=Nc3cc(Cl)ccc3N(NC(=O)c3cc(F)ccc3C(F)(F)F)c3ccc(Cl)cc32)CC1` are 24 nM and 69 nM.
The corresponding values for `CN1CCN(C2=Nc3cc(Cl)ccc3N(NC(=O)c3cccc(C#N)c3)c3ccccc32)CC1` are 62 nM and 3650 nM.
The corresponding values for `CN1CCN(C2=Nc3cc(Cl)ccc3N(NC(=O)c3cc(F)c(F)c(F)c3F)c3ccccc32)CC1` are 32 nM and 1280 nM.
As to `Cc1ccccc1C(=O)NN1c2ccccc2N=C(N2CCN(C)CC2)c2cc(Cl)ccc21`, the inhibitory constant (Ki) amounted to 48 nM at D(1A) dopamine receptor and 1570 nM at D(2) dopamine receptor.
Take `COc1cccc(C(=O)NN2c3ccccc3N=C(N3CCN(C)CC3)c3cc(Cl)ccc32)c1`: the inhibition constant (Ki) on D(1A) dopamine receptor is 86 nM; on D(2) dopamine receptor, 1380 nM.
The corresponding values for `CN1CCN(C2=Nc3ccccc3N(NC(=O)c3ccccc3I)c3ccc(Cl)cc32)CC1` are 7 nM and 231 nM.
The corresponding values for `CN1CCN(C2=Nc3cc(Cl)ccc3N(NC(=O)c3ccc(C#N)cc3)c3ccccc32)CC1` are 68 nM and over 2000 nM.
For the compound `CN1CCN(C2=Nc3cc(Cl)ccc3N(NC(=O)c3ccc4c(c3)OCO4)c3ccc(Cl)cc32)CC1`, the values for the Ki on D(1A) dopamine receptor and at D(2) dopamine receptor were 130 nM and 286 nM, respectively.
`CN1CCN(C2=Nc3cc(Cl)ccc3N(NC(=O)c3ccccc3Br)c3ccccc32)CC1`: the Ki at D(1A) dopamine receptor was 16 nM; at D(2) dopamine receptor, 792 nM.
The corresponding values for `CN1CCN(C2=Nc3cc(Cl)ccc3N(NC(=O)c3cccc(C(F)(F)F)c3)c3ccccc32)CC1` are 148 nM and 1360 nM.
The corresponding values for `COc1ccccc1C(=O)NN1c2ccc(Cl)cc2N=C(N2CCN(C)CC2)c2ccccc21` are 13 nM and 1130 nM.
The corresponding values for `CN1CCN(C2=Nc3cc(Cl)ccc3N(NC(=O)c3ccc(F)cc3C(F)(F)F)c3ccccc32)CC1` are 49 nM and 1620 nM.
